Results reported in patent US9504676B2, “Molecules inhibiting a metabolic pathway involving the Syk protein tyrosine kinase and method for identifying said molecules” (CENTRE NATIONAL DE LA RECHERCHE SCIENTIFIQUE, priority 2008, dated 2016).
≈ marks a conversion by molar mass, not a printed value.

Tests used:
[1] = target: T1, murine Syk tyrosine kinase protein (GST:Syk 6-242) (Mus musculus, UniProt P48025); test: ADA method: displacement of the binding of scFv G4G11 with Syk (ELISA); details: small molecules at 10 μM, scFv G4G11 100 nM; read-out: In vit. inhib.: mean inhibition % of the binding of scFv G4G11 with Syk in the ADA method
T1 construct: made in house
Excerpt: The term “percentage of inhibition” of the binding of an antibody or antibody fragment with Syk protein, particularly refers to the ratio […], where A consists of the intensity of a signal proportional to the quantity of an antibody or antibody fragment bound with Syk protein in the absence of a molecule according to the invention and B the intensity of the same signal in the presence of a molecule according to the invention under the same conditions. […] This test may be performed for example according to the protocol described in example 3-2) hereinafter.
The inventors developed the ADA (Antigen Displacement Assay) method to identify small molecules capable of displacing the association with scFv G4G11 with Syk. […] To understand the mode of action of C-13, the inventors firstly identified the binding site of G4G11 using the SPOT method^16. An epitope located on the N-terminal SH2 domain of Syk, comprising amino acids 65-74 and 100% preserved in mouse, rat and human sequences, was identified.
The ADA method was then applied to each of these […] molecules to measure the ability thereof to inhibit the binding of scFv G4G11 with Syk.
(§1) • 1) Chemical products and antibodies. A chemical bank of 3000 molecules (a varied subset) was acquired from ChemBridge, Inc. (San Diego, Calif.). Stocks of solutions of small molecules were prepared at a rate of 10 mM in DMSO (dimethylsulphoxide), except for C-13 (methyl 2-{5-[(3-benzyl-4-oxo-2-thioxo-1,3-thiazolidin-5-ylidene)methyl]-2-furyl}benzoate, ChemBridge ID No. 6197026) prepared in DMF (dimethylformamide). Unless specified otherwise, all the reagents were supplied by Sigma. Dinitrophenyl (DNP) hapten was acquired from Calbiochem. Sepharose GammaBind G and all the secondary antibodies were supplied by GE Health Amersham Biosciences. The anti-Syk, anti-Lyn, anti-Btk, anti-PLC-γ1, anti-PLC-γ2, anti-LAT, anti-SLP-76, anti-p38, anti-JNK, anti-Vav, anti-Akt1 and 9E10 antibodies conjugated with HRP were acquired from Santa Cruz Biotechnology. The anti-phospho-p44/42 MAP Kinase, anti-p44/42 MAP Kinase, anti-phospho-p38, anti-phospho-JNK, anti-phospho-Akt1 antibodies were acquired from Cell Signaling. The anti-phospho-LAT and anti-phospho-PLC-γ1 antibodies were supplied by Biosource and the anti-phospho-SLP-76 antibodies by BD Pharmingen. The 4G10 anti-phosphotyrosine monoclonal antibody was acquired from Upstate Biotechnology. • 2) ADA method: ELISA type high-speed molecule screening test, based on antibody displacement (WO 2005106481). The recombinant fusion protein GST:Syk 6-242^8 comprising the residues 6 to 242 of murine Syk tyrosine kinase protein illustrated in FIG. 8B (SEQ ID No. 4) was immobilised on an ELISA plate at a final concentration of 10 μg ml^−1. For the screening of the chemical molecule bank, the small molecules, diluted in PBS at a final concentration of 10 μM were added to the wells for one hour at ambient temperature, before adding the fragment scFv G4G11 at a final concentration of 100 nM for an additional hour. The binding of G4G11 with Syk was assessed by adding the 9E10 monoclonal antibody conjugated with HRP detecting the amino acid sequence EQKLISEEDLN of human c-myc protein located at the C-terminal end of the scFv fragment. To generate Syk mutants, targeted mutagenesis was used on GST:Syk 6-242 protein and the binding of G4G11 with the mutants was assessed in the presence of 5 μM of C-13. • 3) Cells, culture conditions and functional tests. Anti-DNP 2682-I mouse monoclonal antibody was used as the culture supernatant of hybridomas containing 1 μg/ml of IgE. Femoral bone marrow cells were sampled and cultured in Opti-MEM medium (Gibco) supplemented with 10% foetal calf serum and 4% X63 transfectant supernatant secreting murine IL-3. RBL-2H3 (ATCC) leukaemic rat basophil cells were maintained in a single-layer culture in RPMI 1640 medium supplemented with 10% foetal calf serum (Gibco). […]

[2] = system: RBL-2H3 cells; test: cells; assay type: cell-based, rat; details: Rattus norvegicus; RBL-2H3 cells; read-out: Degran. IC50: concentration inhibiting mast cell degranulation by 50%
Description: These 87 molecules were also tested in vitro to assess the ability thereof to inhibit RBL-2H3 cell degranulation (see table 1).
as §1, with “(Gibco). Measurements of β-hexosaminidase released by the RBL-2H3 cells were performed as described previously^7, except that, after 12-16 hours of incubation with anti-DNP IgE (0.5 μg/ml), the cells were incubated for 90 min at 37° C. in RPMI medium supplemented with the specified concentrations of C-13 or DMF (0.25%). The cells were stimulated for 45 min with DNP-BSA (50 ng ml^−1) or ionomycin (1.5 μM). The BMMC cells were incubated for one hour at 37° C. with anti-DNP IgE (100 ng/ml). They were then incubated with C-13 (3 μM) or DMF (0.3%) for 3 hours at 37° C., and stimulated with varied concentrations of DNP-BSA. The level of β-hexosaminidase released was measured 10 min later and the TNF-α titration was performed by means of a cytotoxicity test on L929 cells as described previously^10, 3 hours after stimulation. The results illustrated in FIG. 3 are representative of three independent experiments. • 4) Immunoprecipitations, in vitro kinase assays and immunodetection.” for “(Gibco).”

Structure (SMILES) | inhibition at 10 µM [1] [%] | IC50 [2] [µg/mL]
COc1ccc(OC)c(C2C(C(=O)c3ccc(C)cc3)=C(O)C(=O)N2Cc2cccnc2)c1 (centres unmarked) [Molecule 11, 5-(2,5-dimethoxyphenyl)-3-hydroxy-4-(4-methylbenzoyl)-1-(3-pyridinylmethyl)-1,5-dihydro-2H-pyrrol-2-one] | 70.5 | > 10
COc1ccc(C2C(C(=O)c3ccc(F)cc3)=C(O)C(=O)N2CCN2CCOCC2)cc1OC (centres unmarked) [Molecule 31, 5-(3,4-dimethoxyphenyl)-4-(4-fluorobenzoyl)-3-hydroxy-1-(2-(4-morpholinyl)ethyl]-1,5-dihydro-2H-pyrrol-2-one] | 50 | > 10
COc1ccc(C2C(C(=O)c3cccs3)=C(O)C(=O)N2CCN2CCOCC2)cc1OC (centres unmarked) [Molecule 38, 5-(3,4-dimethoxyphenyl)-3-hydroxy-1-[2-(4-morpholinyl)ethyl]-4-(2-thienylcarbonyl)-1,5-dihydro-2H-pyrrol-2-one] | 50 | > 10
COc1cc(C2C(C(=O)c3ccc(Cl)cc3)=C(O)C(=O)N2CCCN2CCOCC2)cc(OC)c1OC (centres unmarked) [Molecule 25, 4-(4-chlorobenzoyl)-3-hydroxy-1-[3-(4-morpholinyl)propyl]-5-(3,4,5-trimethoxyphenyl)-1,5-dihydro-2H-pyrrol-2-one] | 56.5 | > 10
CCN(CC)CCN1C(=O)C(O)=C(C(=O)c2ccc(C)cc2)C1c1cc(OC)ccc1OC (centres unmarked) [Molecule 28, 1-[2-(diethylamino)ethyl]-5-(2,5-dimethoxyphenyl)-3-hydroxy-4-(4-methylbenzoyl)-1,5-dihydro-2H-pyrrol-2-one] | 54 | > 10
Cn1c(SCC(=O)NCC2CCCO2)nnc1-c1ccc(NC(=O)c2ccccc2Cl)cc1 (centres unmarked) [Molecule 47] | 47.5 | > 10
CC(C)c1ccc(C2C(C(=O)c3ccc(F)cc3)=C(O)C(=O)N2CCCN2CCOCC2)cc1 (centres unmarked) [Molecule 19, 4-(4-fluorobenzoyl)-3-hydroxy-5-(4-isopropylphenyl)-1-[3-(4-morpholinyl)propyl]-1,5-dihydro-2H-pyrrol-2-one] | 60 | > 10
CC(C)c1ccc(C2C(C(=O)c3ccccc3)=C(O)C(=O)N2CCN2CCOCC2)cc1 (centres unmarked) [Molecule 26] | 56.5 | > 10
COc1cc(C2C(C(=O)c3ccc(C)o3)=C(O)C(=O)N2CCN(C)C)cc(OC)c1OC (centres unmarked) [Molecule 52, 1-[2-(dimethylamino)ethyl]-3-hydroxy-4-(5-methyl-2-furoyl)-5-(3,4,5-trimethoxyphenyl)-1,5-dihydro-2H-pyrrol-2-one] | 46 | > 10

Further lines, results first:

inhibition at 10 µM [1] [%] | IC50 [2] [µg/mL] | Structure (SMILES)
40 | ~10 (≈ 22.8 µM) | Cc1cc(C)c(OCC(=O)N2CCN(C(=O)COc3c(C)cc(C)cc3C)CC2)c(C)c1 [Molecule 58, 1,4-bis [(mesityloxy)acetyl] piperazine]
25 | > 10 | CCN1C2=C(C(=O)CCC2)C(c2ccc(OCc3ccc(C)cc3)c(Cl)c2)C2=C1CCCC2=O [Molecule 79]
30 | ~10 (≈ 21.3 µM) | O=C(C1=C(O)C(=O)N(CCCN2CCOCC2)C1c1ccccc1F)c1ccc2c(c1)OCO2 (centres unmarked) [Molecule 68, 4-(1,3-benzodioxol-5-ylcarbonyl)-5-(2-fluorophenyl)-3-hydroxy-1-[3-(4-morpholinyl)propyl]-1,5-dihydro-2H-pyrrol-2-one]
32 | > 10 | Cc1ccc(-c2nnc(Nc3cccc(O)c3)c3ccccc23)cc1S(=O)(=O)NC(C)(C)CO [Molecule 67, N-(2-hydroxy-1,1-dimethylethyl)-5-{4-[(3-hydroxyphenyl)amino]-1-phthalazinyl}-2-methylbenzenesulphonamide]
40 | > 10 | CCOC(=O)c1c(-c2ccccc2)oc2ccc(OC(C(=O)O)c3ccccc3)cc12 (centres unmarked) [Molecule 60, {[3-(ethoxy carbonyl)-2-phenyl-1-benzofuran-5-yl]oxy} (phenyl) acetic acid]
25 | > 10 | O=C(Nc1ccccc1C(=O)N1CCCC1)c1ccc(CN2CCc3ccccc3C2)cc1 [Molecule 78, 4-(3,4-dihydro-2(1H)-isoquinolinyl-methyl)-N-[2-(1-pyrrolidinylcarbonyl)phenyl]benzamide]
38.5 | > 10 | O=C1c2ccc(Oc3ccc4c(c3)C(=O)N(CC3CCCO3)C4=O)cc2C(=O)N1CC1CCCO1 (centres unmarked) [Molecule 62, 5,5′-oxybis [2-(tetrahydro-2-furanyl methyl)-1H-isoindole-1,3(2H)-dione]]
